From patent US20060069132A1, “Azolecarboxamide herbicides” (priority 2004, published 2006)

What was measured:
[1] = test system: barnyardgrass; assay: Test B pre-/postemergence herbicide test; type: in vivo, Echinochloa crus-galli; details: for Barnyardgrass plant response rating (0 to 100 scale) / Plant response rating, Barnyardgrass: 0 = no effect, 100 = complete control, preemergence; for Barnyardgrass plant response rating: postemergence
In short: (§1)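 Visual rating, 0 (no effect) to 100 (complete control), versus untreated controls after 13–15 d in greenhouse. Pre- and postemergence applications (postemergence plants 2–18 cm, 1–4 leaves); flooded paddy arm at 2-leaf stage. Compounds in non-phytotoxic solvent plus surfactant.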

[2] = test system: Surinam grass; assay: Test B pre-/postemergence herbicide test; type: in vivo, Urochloa decumbens; details: for Surinam Grass plant response rating (0 to 100 scale) / Plant response rating, Surinam Grass: 0 = no effect, 100 = complete control, preemergence; for Surinam Grass plant response rating: postemergence
In short: (§2)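 Evaluation is visual, comparing treated with control plants on a scale where 0 means no effect and 100 means full control. Treatments were preemergence, or postemergence on seedlings 2–18 cm tall, and held 13–15 days in the greenhouse.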

[3] = test system: cocklebur; assay: Test B pre-/postemergence herbicide test; type: in vivo, Xanthium strumarium; details: for Cocklebur plant response rating (0 to 100 scale) / Plant response rating, Cocklebur: 0 = no effect, 100 = complete control, preemergence; for Cocklebur plant response rating: postemergence
In short: as §1

[4] = test system: corn; assay: Test B pre-/postemergence herbicide test; type: in vivo, Zea mays; details: for Corn plant response rating (0 to 100 scale) / Plant response rating, Corn: 0 = no effect, 100 = complete control, preemergence; for Corn plant response rating: postemergence
In short: as §2

[5] = test system: large crabgrass; assay: Test B pre-/postemergence herbicide test; type: in vivo, Digitaria sanguinalis; details: for Crabgrass, Large plant response rating (0 to 100 scale) / Plant response rating, Crabgrass, Large: 0 = no effect, 100 = complete control, preemergence; for Crabgrass, Large plant response rating: postemergence
In short: as §2

[6] = test system: giant foxtail; assay: Test B pre-/postemergence herbicide test; type: in vivo, Setaria faberi; details: for Foxtail, Giant plant response rating (0 to 100 scale) / Plant response rating, Foxtail, Giant: 0 = no effect, 100 = complete control, preemergence; for Foxtail, Giant plant response rating: postemergence
In short: as §2

[7] = test system: lambsquarters; assay: Test B pre-/postemergence herbicide test; type: in vivo, Chenopodium album; details: for Lambsquarters plant response rating (0 to 100 scale) / Plant response rating, Lambsquarters: 0 = no effect, 100 = complete control, preemergence; for Lambsquarters plant response rating: postemergence
In short: as §2

[8] = test system: morningglory; assay: Test B pre-/postemergence herbicide test; type: in vivo, Ipomoea coccinea; details: for Morningglory plant response rating (0 to 100 scale) / Plant response rating, Morningglory: 0 = no effect, 100 = complete control, preemergence; for Morningglory plant response rating: postemergence
In short: as §1

[9] = test system: pigweed; assay: Test B pre-/postemergence herbicide test; type: in vivo, Amaranthus retroflexus; details: for Pigweed plant response rating (0 to 100 scale) / Plant response rating, Pigweed: 0 = no effect, 100 = complete control, preemergence; for Pigweed plant response rating: postemergence
In short: as §2

[10] = test system: blackgrass; assay: Test B postemergence herbicide test; type: in vivo, Alopecurus myosuroides; details: postemergence
In short: (§3)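 Visual ratings, 0 (no effect) to 100 (complete control), made versus controls after 13–15 d greenhouse. Paddy plants treated at 2-leaf stage; postemergence plants at 1- to 4-leaf stage, 2–18 cm tall.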

[11] = test system: wheat; assay: Test B postemergence herbicide test; type: in vivo, Triticum aestivum; design: key to Wheat plant response rating: 0 = no effect, 100 = complete control; details: postemergence
In short: (§4)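 After treating 2-leaf paddy plants or 2–18 cm postemergence plants (1 to 4 leaves) with formulated chemical, researchers kept them in a greenhouse for 13–15 days. Effects were judged visually versus controls: 0 indicates none, 100 total control.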

[12] = test system: wild oat; assay: Test B postemergence herbicide test; type: in vivo, Avena fatua; details: postemergence
In short: as §4

[13] = test system: rice; assay: Test B flooded paddy test; type: in vivo, Oryza sativa; details: 1000 g ai/ha, scale 0 to 100 (0 no effect, 100 complete control)
In short: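 Each value is a visual 0–100 response rating taken against controls 13 to 15 days after treatment in the greenhouse. Plants received formulated chemical postemergence at the 1- to 4-leaf stage or, in flooded paddy, at the 2-leaf stage.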

[14] = test system: small flower umbrella sedge; assay: Test B flooded paddy test; type: in vivo, Cyperus difformis; details: 1000 g ai/ha, scale 0 to 100 (0 no effect, 100 complete control)
In short: as §3

[15] = test system: ducksalad; assay: Test B flooded paddy test; type: in vivo, Heteranthera limosa; details: 1000 g ai/ha, scale 0 to 100 (0 no effect, 100 complete control)
In short: as §3

[16] = test system: barnyardgrass; assay: Test B flooded paddy test; type: in vivo, Echinochloa crus-galli; details: 1000 g ai/ha, scale 0 to 100 (0 no effect, 100 complete control)
In short: as §3

[17] = 125 g ai/ha, visual rating, scale 0 (no effect) to 100 (complete control)
[18] = 500 g ai/ha, scale 0 to 100, 0 is no effect, 100 is complete control

## CCNC(=O)c1cccc(NC(=O)c2cc(C3(C)CC3)nn2CC)c1 [Compound 306]
[1]; 125 g ai/ha
  Barnyardgrass plant response rating (0 to 100 scale): 60
[1]; [17]
  Barnyardgrass plant response rating: 10
[1]; 500 g ai/ha, visual rating
  Plant response rating, Barnyardgrass: 90
[1]; [18]
  Barnyardgrass plant response rating: 10
[2]; 125 g ai/ha
  Surinam Grass plant response rating (0 to 100 scale): 30
[2]; [17]
  Surinam Grass plant response rating: 10
[2]; 500 g ai/ha, visual rating
  Plant response rating, Surinam Grass: 90
[2]; [18]
  Surinam Grass plant response rating: 30
[3]; 125 g ai/ha
  Cocklebur plant response rating (0 to 100 scale): 0
[3]; [17]
  Cocklebur plant response rating: 30
[3]; 500 g ai/ha, visual rating
  Plant response rating, Cocklebur: 50
[3]; [18]
  Cocklebur plant response rating: 70
[4]; 125 g ai/ha
  Corn plant response rating (0 to 100 scale): 70
[4]; [17]
  Corn plant response rating: 30
[4]; 500 g ai/ha, visual rating
  Plant response rating, Corn: 100
[4]; [18]
  Corn plant response rating: 30
[5]; 125 g ai/ha
  Crabgrass, Large plant response rating (0 to 100 scale): 100
[5]; [17]
  Crabgrass, Large plant response rating: 10
[5]; 500 g ai/ha, visual rating
  Plant response rating, Crabgrass, Large: 100
[5]; [18]
  Crabgrass, Large plant response rating: 50
[6]; 125 g ai/ha
  Foxtail, Giant plant response rating (0 to 100 scale): 40
[6]; [17]
  Foxtail, Giant plant response rating: 10
[6]; 500 g ai/ha, visual rating
  Plant response rating, Foxtail, Giant: 100
[6]; [18]
  Foxtail, Giant plant response rating: 40
[7]; 125 g ai/ha
  Lambsquarters plant response rating (0 to 100 scale): 100
[7]; [17]
  Lambsquarters plant response rating: 70
[7]; 500 g ai/ha, visual rating
  Plant response rating, Lambsquarters: 100
[7]; [18]
  Lambsquarters plant response rating: 80
[8]; 125 g ai/ha
  Morningglory plant response rating (0 to 100 scale): 10
[8]; 500 g ai/ha, visual rating
  Plant response rating, Morningglory: 10
[8]; [18]
  Morningglory plant response rating: 70
[9]; 125 g ai/ha
  Pigweed plant response rating (0 to 100 scale): 100
[9]; [17]
  Pigweed plant response rating: 70
[9]; 500 g ai/ha, visual rating
  Plant response rating, Pigweed: 100
[9]; [18]
  Pigweed plant response rating: 100
[10]; [17]
  Blackgrass plant response rating: 10
[10]; [18]
  Blackgrass plant response rating: 30
[11]; [17]
  Wheat plant response rating: 10
[11]; [18]
  Wheat plant response rating: 20
[12]; [17]
  Oat, Wild plant response rating: 20
[12]; [18]
  Oat, Wild plant response rating: 30
[13]
  Rice plant response rating: 60
[14]
  Sedge, Umbrella plant response rating: 80
[15]
  Ducksalad plant response rating: 80
[16]
  Barnyardgrass plant response rating: 80

## CCn1nc(C(C)(C)C)cc1C(=O)Nc1cc(C(=S)N(C)C)ccc1F [Compound 294]
[1]; 125 g ai/ha
  Barnyardgrass plant response rating (0 to 100 scale): 100
[1]; [17]
  Barnyardgrass plant response rating: 20
[1]; 500 g ai/ha, visual rating
  Plant response rating, Barnyardgrass: 100
[1]; [18]
  Barnyardgrass plant response rating: 60
[2]; 125 g ai/ha
  Surinam Grass plant response rating (0 to 100 scale): 100
[2]; [17]
  Surinam Grass plant response rating: 20
[2]; 500 g ai/ha, visual rating
  Plant response rating, Surinam Grass: 100
[2]; [18]
  Surinam Grass plant response rating: 40
[3]; 125 g ai/ha
  Cocklebur plant response rating (0 to 100 scale): 90
[3]; [17]
  Cocklebur plant response rating: 30
[3]; 500 g ai/ha, visual rating
  Plant response rating, Cocklebur: 100
[3]; [18]
  Cocklebur plant response rating: 30
[4]; 125 g ai/ha
  Corn plant response rating (0 to 100 scale): 80
[4]; [17]
  Corn plant response rating: 10
[4]; 500 g ai/ha, visual rating
  Plant response rating, Corn: 100
[4]; [18]
  Corn plant response rating: 50
[5]; 125 g ai/ha
  Crabgrass, Large plant response rating (0 to 100 scale): 100
[5]; [17]
  Crabgrass, Large plant response rating: 10
[5]; 500 g ai/ha, visual rating
  Plant response rating, Crabgrass, Large: 100
[5]; [18]
  Crabgrass, Large plant response rating: 20
[6]; 125 g ai/ha
  Foxtail, Giant plant response rating (0 to 100 scale): 90
[6]; [17]
  Foxtail, Giant plant response rating: 30
[6]; 500 g ai/ha, visual rating
  Plant response rating, Foxtail, Giant: 100
[6]; [18]
  Foxtail, Giant plant response rating: 50
[7]; 125 g ai/ha
  Lambsquarters plant response rating (0 to 100 scale): 100
[7]; [17]
  Lambsquarters plant response rating: 70
[7]; 500 g ai/ha, visual rating
  Plant response rating, Lambsquarters: 100
[7]; [18]
  Lambsquarters plant response rating: 80
[8]; 125 g ai/ha
  Morningglory plant response rating (0 to 100 scale): 0
[8]; [17]
  Morningglory plant response rating: 10
[8]; 500 g ai/ha, visual rating
  Plant response rating, Morningglory: 20
[8]; [18]
  Morningglory plant response rating: 20
[9]; 125 g ai/ha
  Pigweed plant response rating (0 to 100 scale): 100
[9]; [17]
  Pigweed plant response rating: 30
[9]; 500 g ai/ha, visual rating
  Plant response rating, Pigweed: 100
[9]; [18]
  Pigweed plant response rating: 70
[10]; [17]
  Blackgrass plant response rating: 20
[10]; [18]
  Blackgrass plant response rating: 60
[11]; [17]
  Wheat plant response rating: 30
[11]; [18]
  Wheat plant response rating: 40
[12]; [17]
  Oat, Wild plant response rating: 40
[12]; [18]
  Oat, Wild plant response rating: 50
[13]
  Rice plant response rating: 90
[14]
  Sedge, Umbrella plant response rating: 80
[15]
  Ducksalad plant response rating: 90
[16]
  Barnyardgrass plant response rating: 90
